In ChEMBL document CHEMBL4808169, “Discovery of Potent and Fast-Acting Antimalarial Bis-1,2,4-triazines” (J Med Chem, 2021):
In brackets after ≈: the same amount, converted by molar mass. One block for each compound: values may come before it. Activity calls are given as the source filed them. No cut-off for these calls is given here.

Experiments:
Plasmodium falciparum [1] = experiment: microbe, parasite or virus in culture; conditions: 3D7, 72 h
Description: Antimalarial activity against Plasmodium falciparum 3D7 infected in human red blood cells after 72 hrs by DAPI-staining based assay

[2] = Half life in human liver microsomes in presence of NADPH by UPLC-MS analysis; type: ADME, Microsome
[3] = Kinetic solubility of compound at pH 2 by nephelometry; type: physicochemical; conditions: buffer, read-out: Kinetic_solubility
[4] = Intrinsic clearance in human liver microsomes assessed per mg of protein in presence of NADPH by UPLC-MS analysis; type: ADME, Microsome; conditions: read-out: CLH
[5] = Half life in mouse liver microsomes in presence of NADPH by UPLC-MS analysis; type: ADME, Microsome
[6] = Kinetic solubility of compound at pH 6.5 by nephelometry; type: physicochemical; conditions: buffer, read-out: Kinetic_solubility
[7] = Intrinsic clearance in mouse liver microsomes in presence of NADPH by UPLC-MS analysis; type: ADME, Microsome
Plasmodium berghei = experiment: Antiplasmodial activity against Plasmodium berghei ANKA infected in po dosed Swiss mouse administered at 2 hrs post infection and measured on day 4 by Peter's 4-day test; type: functional
Plasmodium falciparum [8] = experiment: Bactericidal activity against Plasmodium falciparum 3D7A at 10 times IC50; type: functional, organism-based
Plasmodium falciparum [9] = experiment: Antimalarial activity against Plasmodium falciparum 3D7 infected in human red blood cells at 40 uM after 72 hrs by DAPI-staining based assay relative to control; type: functional

Structure (SMILES): C[C@H]1[C@H](OC(=O)CCC(=O)O)O[C@@H]2O[C@@]3(C)CC[C@H]4[C@H](C)CC[C@@H]1[C@@]24OO3 [ARTESUNATE]
ED50 (Plasmodium berghei): 1.37 mg/kg/day
Activity (Plasmodium falciparum [8]): Active

Structure (SMILES): CSc1nncc(-c2cnnc(SCCN(C)C)n2)n1
solubility kinetic [3]: 6.3 µg/mL (≈ 20.4 µM)
solubility kinetic [6]: 6.3 µg/mL (≈ 20.4 µM)

Structure (SMILES): COc1nncc(-c2cnnc(SCCN(C)C)n2)n1
IC50 (Plasmodium falciparum [1]): 0.85 µM

Structure (SMILES): CC(C)Sc1nncc(-c2cnnc(SCCN(C)C)n2)n1
IC50 (Plasmodium falciparum [1]): 0.21 µM

Structure (SMILES): CC(C)Oc1nncc(-c2cnnc(OC(C)C)n2)n1
IC50 (Plasmodium falciparum [1]): 2 µM

Structure (SMILES): CN(C)CCOc1nncc(-c2cnnc(OCCN(C)C)n2)n1
IC50 (Plasmodium falciparum [1]): 8.6 µM

Structure (SMILES): COCCOc1nncc(-c2cnnc(OCCOC)n2)n1
Activity (Plasmodium falciparum [9]): 100%

Structure (SMILES): CCCCc1nncc(-c2cnnc(CCCC)n2)n1
IC50 (Plasmodium falciparum [1]): 0.34 µM

Structure (SMILES): CC(CN(C)C)Oc1nncc(-c2cnnc(OC(C)CN(C)C)n2)n1 (configuration not stated)
IC50 (Plasmodium falciparum [1]): 12 µM

Structure (SMILES): CC#CCOc1nncc(-c2cnnc(OCC#CC)n2)n1
IC50 (Plasmodium falciparum [1]): 1 µM

Structure (SMILES): FC(F)(F)COc1nncc(-c2cnnc(OCC(F)(F)F)n2)n1
IC50 (Plasmodium falciparum [1]): 0.42 µM

Structure (SMILES): C[Si](C)(C)CCOc1nncc(-c2cnnc(OCC[Si](C)(C)C)n2)n1
IC50 (Plasmodium falciparum [1]): 0.72 µM

Structure (SMILES): CC(C)Oc1nncc(-c2cnnc(OCCN(C)C)n2)n1
IC50 (Plasmodium falciparum [1]): 0.44 µM

Structure (SMILES): CCN(CC)CCCC(C)Nc1ccnc2cc(Cl)ccc12 (configuration not stated) [CHLOROQUINE]
Activity (Plasmodium falciparum [8]): Active

Structure (SMILES): c1nnc(OC2CC2)nc1-c1cnnc(OC2CC2)n1
IC50 (Plasmodium falciparum [1]): 0.89 µM

Structure (SMILES): COCCSc1nncc(-c2cnnc(SCCN(C)C)n2)n1
IC50 (Plasmodium falciparum [1]): 0.26 µM

Structure (SMILES): Cc1ncsc1CCOc1nncc(-c2cnnc(OCCc3scnc3C)n2)n1
IC50 (Plasmodium falciparum [1]): 0.5 µM

Structure (SMILES): [N-]=[N+]=NCCCSc1nncc(-c2cnnc(SCCCN=[N+]=[N-])n2)n1
IC50 (Plasmodium falciparum [1]): 0.031 µM

The remaining compounds from weak to strong by IC50 (Plasmodium falciparum [1]), led by results:

IC50 (Plasmodium falciparum [1]): 0.13 µM
Structure (SMILES): C#CCOc1nncc(-c2cnnc(SC)n2)n1

half-life [2]: 199 min
solubility kinetic [3]: 50 µg/mL (≈ 172 µM)
microsomal CLint [4]: 9 µL/min/mg
half-life [5]: 15 min
IC50 (Plasmodium falciparum [1]): 0.12 µM
solubility kinetic [6]: 25 µg/mL (≈ 85.8 µM)
microsomal CLint [7]: 118 µL/min/mg
Structure (SMILES): CCc1nncc(-c2cnnc(SCCN(C)C)n2)n1

IC50 (Plasmodium falciparum [1]): 0.11 µM
Structure (SMILES): CCCOc1nncc(-c2cnnc(OCCC)n2)n1

IC50 (Plasmodium falciparum [1]): 0.093 µM
Structure (SMILES): FC(F)(F)CCOc1nncc(-c2cnnc(OCCC(F)(F)F)n2)n1

IC50 (Plasmodium falciparum [1]): 0.081 µM
Structure (SMILES): CC(C)Oc1nncc(-c2cnnc(SCCN(C)C)n2)n1

half-life [2]: 232 min
solubility kinetic [3]: 50 µg/mL (≈ 139 µM)
microsomal CLint [4]: 7 µL/min/mg
half-life [5]: 53 min
IC50 (Plasmodium falciparum [1]): 0.054 µM
solubility kinetic [6]: 50 µg/mL (≈ 139 µM)
microsomal CLint [7]: 33 µL/min/mg
Structure (SMILES): CN(C)CCOc1nncc(-c2cnnc(OCCC(F)(F)F)n2)n1

IC50 (Plasmodium falciparum [1]): 0.032 µM
Structure (SMILES): CSc1nncc(-c2cnnc(OC(C)CN(C)C)n2)n1 (configuration not stated)

IC50 (Plasmodium falciparum [1]): 0.032 µM
Structure (SMILES): C#CCSc1nncc(-c2cnnc(SC)n2)n1

half-life [2]: 69 min
solubility kinetic [3]: 25 µg/mL (≈ 82.4 µM)
microsomal CLint [4]: 25 µL/min/mg
half-life [5]: 16 min
IC50 (Plasmodium falciparum [1]): 0.03 µM
solubility kinetic [6]: 25 µg/mL (≈ 82.4 µM)
microsomal CLint [7]: 109 µL/min/mg
Structure (SMILES): CCCCc1nncc(-c2cnnc(OCCN(C)C)n2)n1

IC50 (Plasmodium falciparum [1]): 0.012 µM
Structure (SMILES): CC(C)Sc1nncc(-c2cnnc(OCCN(C)C)n2)n1

IC50 (Plasmodium falciparum [1]): 0.011 µM
Structure (SMILES): CCCOc1nncc(-c2cnnc(SCCN(C)C)n2)n1

half-life [2]: 31 min
solubility kinetic [3]: 50 µg/mL (≈ 157 µM)
microsomal CLint [4]: 56 µL/min/mg
half-life [5]: 5 min
IC50 (Plasmodium falciparum [1]): 0.009 µM
solubility kinetic [6]: 25 µg/mL (≈ 78.3 µM)
microsomal CLint [7]: 330 µL/min/mg
Structure (SMILES): CCCCc1nncc(-c2cnnc(SCCN(C)C)n2)n1

IC50 (Plasmodium falciparum [1]): 0.0044 µM
Structure (SMILES): CSc1nncc(-c2cnnc(SCCCN=[N+]=[N-])n2)n1
